Measured values taken from US20240166598A1, “COMPOUNDS, COMPOSITIONS, AND METHODS OF USING THE SAME” (priority 2021, published 2024).
Where two headings read alike, the source gives them in different places.

Key:
[1] = target: T1, SARS CoV-2 PLpro (Severe acute respiratory syndrome coronavirus 2 (2019-nCoV) (SARS-CoV-2), UniProt P0DTD1); assay: biochemical; assay type: binding
[2] = target: T1, SARS CoV-2 PLpro; assay: biochemical; assay type: biochemical; details: for PLpro inhibition potency, in words (SAR): compared with GRL0617 / parent
[3] = in vitro; details: human, Caco-2
[4] = in vitro; details: human, microsomes
[5] = human
[6] = Table 7, read-out: Enzymatic assay IC50
[7] = read-out: SPR binding assays KD
[8] = read-out: Enzyme inhibition IC50

Q: Which results are given for Cc1ccc(N)cc1C(=O)NC(C)c1cccc2cc[nH]c12 (stereo not shown) [Example 18, N-(1-(1H-indol-7-yl)ethyl)-5-amino-2-methylbenzamide]?
A: Kd ([1]; read-out: SPR binding assay KD): 30.3 µM; IC50 ([2]; read-out: Enzymatic assay IC50): 4.7 µM

Q: For Cc1ccc(N)cc1C(=O)NC(CO)c1cccc2ccccc12 (stereo not shown) [Example 26, 5-amino-N-(2-hydroxy-1-(naphthalen-1-yl)ethyl)-2-methylbenzamide], which IC50 [2, 6] is on record?
A: The IC50 was roughly 100 µM.

Q: For Cc1ccc(N)cc1C(=O)N[C@H](C)c1c(O)ccc2ccccc12 [Example 27, (R)-5-amino-N-(1-(2-hydroxynaphthalen-1-yl)ethyl)-2-methylbenzamide], which Kd ([1]; read-out: SPR binding assay KD) is on record?
A: Its Kd is 184 µM.

Q: And the IC50 [2, 6]?
A: Its IC50 is greater than 100 µM.

Q: Which IC50 [2, 6] does the source give for Cc1ccc(N(C)C2CNC2)cc1C(=O)N[C@H](C)c1c(OC2CNC2)ccc2ccccc12 [Example 30, (R)-5-(azetidin-3-yl(methyl)amino)-N-(1-(2-(azetidin-3-yloxy)naphthalen-1-yl)ethyl)-2-methylbenzamide] here?
A: Its IC50 is greater than 100 µM.

Q: Which Kd ([1]; Table 7, read-out: SPR binding assay KD) does the source give for Cc1ccc(N)cc1C(=O)N[C@H](C)c1cccc2cccnc12 [Example 35, (R)-5-amino-2-methyl-N-(1-(quinolin-8-yl)ethyl)benzamide] here?
A: The Kd was greater than 1000 µM.

Q: With CN(C)CC[C@@H](NC(=O)c1cccc(N(C)C2CNC2)c1)c1cccc2ccccc12 [Example 41, (R)-3-(azetidin-3-yl(methyl)amino)-N-(3-(dimethylamino)-1-(naphthalen-1-yl)propyl)benzamide] as the molecule, how does the IC50 [2, 6] read?
A: The IC50 was greater than 100 µM.

Q: For Cc1ccc(N)cc1S(=O)(=O)N[C@H](C)c1cccc2ccccc12 [Example 48, (R)-5-amino-2-methyl-N-(1-(naphthalen-1-yl)ethyl)benzenesulfonamide], which IC50 [2, 6] is on record?
A: Its IC50 is greater than 100 µM.

Q: Which Kd ([1]; read-out: SPR binding assay KD) does the source give for Cc1ccc(N(C)C2CNC2)cc1C(=O)N[C@H](C)c1cccc2c1ccn2CC1CCC1 [Example 50, (R)-5-(azetidin-3-yl(methyl)amino)-N-(1-(1-(cyclobutylmethyl)-1H-indol-4-yl)ethyl)-2-methylbenzamide] here?
A: Its Kd is 14.1 µM.

Q: What about the IC50 ([2]; read-out: Enzymatic assay IC50) of the same molecule?
A: Its IC50 is 3.3 µM.

Q: With C[C@@H](NC(=O)c1cc(NC2CNC2)ccc1Cl)c1csc2ccccc12 [Example 54, (R)-5-(azetidin-3-ylamino)-N-(1-(benzo[b]thiophen-3-yl)ethyl)-2-chlorobenzamide] as the molecule, how does the Kd ([1]; read-out: SPR binding assay KD) read?
A: Its Kd is 33 µM.

Q: What about the IC50 ([2]; read-out: Enzymatic assay IC50) of the same molecule?
A: Its IC50 is 8.5 µM.

Q: With CC(C)NCC(O)COc1cccc2ccccc12 (stereo not shown) [Propranolol] as the molecule, how does the Papp A→B [3] read?
A: Its Papp A→B is 17.9 ×10⁻⁶ cm/s.

Q: What about the Papp B→A [3] of the same molecule?
A: The Papp B→A was 18.3 ×10⁻⁶ cm/s.

Q: What about the efflux ratio [3] of the same molecule?
A: Its efflux ratio is 1.02.

Q: With Cc1ccc(NC2CNC2)cc1C(=O)N[C@H](C)c1cccc(-c2ccc(CN3CC[C@H](O)C3)s2)c1 [XR8-57] as the molecule, how does the half-life [4] read?
A: Its half-life is 85.4 h.

Q: What about the “In vitro CIint” value [5] of the same molecule?
A: The value was 0.27 μL/min/mg protein.

Q: What about the “Scale-up CIint” value [5] of the same molecule?
A: Its value is 0.34 mL/min/kg.

Q: Which Kd [1, 7] does the source give for Cc1ccc(NC2CN(C(=O)OC(C)(C)C)C2)cc1C(=O)N[C@H](C)c1cccc2ccccc12 [ZN-2-180] here?
A: Its Kd is 16 µM.

Q: What about the IC50 [2, 8] of the same molecule?
A: The IC50 was 6.08 µM.

Q: For Cc1ccc(NC2CCN(C(=O)OC(C)(C)C)CC2)cc1C(=O)N[C@H](C)c1cccc2ccccc12 [ZN-2-181], which Kd [1, 7] is on record?
A: The Kd was 4.7 µM.

Q: What about the IC50 [2, 8] of the same molecule?
A: The IC50 was 1.1 µM.

Q: With Cc1ccc(NC(=O)C2CCN(C(=O)OC(C)(C)C)CC2)cc1C(=O)N[C@H](C)c1cccc2ccccc12 [ZN-2-183] as the molecule, how does the Kd [1, 7] read?
A: Its Kd is 31.1 µM.

Q: What about the IC50 [2, 8] of the same molecule?
A: The IC50 was 6 µM.

Q: For Cc1ccc(NC2CNC2)cc1C(=O)N[C@H](C)c1cccc2ccccc12 [ZN-2-184], which Kd ([1]; KD2) is on record?
A: Its Kd is 1.17 µM.

Q: What about the Kd ([1]; KD3) of the same molecule?
A: The Kd was 1.06 µM.

Q: And the Kd ([1]; KD4)?
A: The Kd was 0.856 µM.

Q: What about the “rate of association relative to GRL0617” value ([1]; SPR) of the same molecule?
A: The value was “twofold increase in rate of association”.

Q: What about the Ave ka ([1]; SPR association rate, average of replicates) of the same molecule?
A: Its Ave ka is 340000 M⁻¹ s⁻¹.

Q: What about the ka1 ([1]; SPR association rate, replicate 1) of the same molecule?
A: The ka1 was 426000 M⁻¹ s⁻¹.

Q: What about the ka2 ([1]; SPR association rate, replicate 2) of the same molecule?
A: Its ka2 is 348000 M⁻¹ s⁻¹.

Q: And the ka3 ([1]; SPR association rate, replicate 3)?
A: The ka3 was 231000 M⁻¹ s⁻¹.

Q: What about the ka4 ([1]; SPR association rate, replicate 4) of the same molecule?
A: The ka4 was 356000 M⁻¹ s⁻¹.

Q: What about the Ave kd ([1]; SPR dissociation rate, average of replicates) of the same molecule?
A: The Ave kd was 0.349 s⁻¹.

Q: What about the kd1 ([1]; SPR dissociation rate, replicate 1) of the same molecule?
A: Its kd1 is 0.438 s⁻¹.

Q: And the kd2 ([1]; SPR dissociation rate, replicate 2)?
A: Its kd2 is 0.407 s⁻¹.

Q: And the kd3 ([1]; SPR dissociation rate, replicate 3)?
A: Its kd3 is 0.246 s⁻¹.

Q: And the kd4 ([1]; SPR dissociation rate, replicate 4)?
A: Its kd4 is 0.305 s⁻¹.

Q: And the Kd [1, 7]?
A: Its Kd is 1.03 µM.

Q: What about the “PLpro inhibition potency, in words (SAR)” value [2] of the same molecule?
A: Its value is “two-fold improvement relative to GRL0617”.

Q: And the IC50 [2, 8]?
A: Its IC50 is 1.01 µM.

Q: What does the source list for Cc1ccc(N)cc1C(=O)NC(CO)c1cccc2ccccc12 (stereo not shown) [ZN-3-13]?
A: Kd [1, 7]: 39.1 µM; IC50 ([2]; Table 11, read-out: Enzyme inhibition IC50): ~100 µM

Q: For Cc1ccc(CNCC(=O)O)cc1C(=O)N[C@H](C)c1cccc2ccccc12 [ZN-3-56], which “PLpro inhibition potency, in words (SAR)” value [2] is on record?
A: The value was “slight improvement of potency over GRL0617”.

Q: With C=C(N[C@H](C)c1cccc2ccccc12)C(=O)c1cc(N(C)C2CNC2)ccc1Cl [ZN-3-70] as the molecule, how does the Kd ([1]; Table 10, read-out: SPR binding assays KD) read?
A: The Kd was 41.9 µM.

Q: What about the IC50 ([2]; Table 10, read-out: Enzyme inhibition IC50) of the same molecule?
A: The IC50 was 10.7 µM.

Q: Which Kd ([1]; read-out: SPR binding assay KD) does the source give for “(R)-6-amino-3-methyl-N- (1-(naphthalen-1- yl)ethyl)picolinamide [Example 40]” here?
A: Its Kd is greater than 1000 µM.

Q: And the IC50 ([2]; read-out: Enzymatic assay IC50)?
A: Its IC50 is 10 to 100 µM.
